In the NIST ThermoML archive (doi:10.1016/j.fluid.2015.08.029):

Experiment: xn = mol fraction of the nth substance listed
Settings: Fluid (supercritical or subcritical phases), Buoyancy - hydrostatic balance with magnetic suspension - one sinker, x2 = 0.95

C [methane] + O=C=O
Settings | mass density [kg/m3]
305.16 K, 9767.1 kPa | 617.141
305.16 K, 9967.5 kPa | 629.726
305.17 K, 9370.3 kPa | 584.841
306.1 K, 7971 kPa | 291.729
306.14 K, 8569.3 kPa | 407.211
306.15 K, 8769.4 kPa | 456.137
306.15 K, 9367.9 kPa | 559.009
306.15 K, 9567.4 kPa | 580.099
306.15 K, 9767.6 kPa | 597.343
306.16 K, 9168.1 kPa | 532.249
306.17 K, 8170.1 kPa | 321.108
306.17 K, 8969 kPa | 498.232
306.17 K, 9967.5 kPa | 611.559
306.18 K, 8370.6 kPa | 359.348
307.11 K, 7970.8 kPa | 279.021
307.15 K, 8769.2 kPa | 417.545
307.15 K, 9369.4 kPa | 530.475
307.15 K, 9968.3 kPa | 592.558
307.16 K, 8569.4 kPa | 373.594
307.16 K, 9769.9 kPa | 575.499
307.17 K, 8370.1 kPa | 335.111
307.17 K, 9567.7 kPa | 554.846
307.18 K, 8170.2 kPa | 303.687
307.18 K, 8969.6 kPa | 460.414
307.19 K, 9168.1 kPa | 498.151
308.14 K, 7971.8 kPa | 268.365
308.15 K, 8969.6 kPa | 425.843
308.16 K, 8773.5 kPa | 385.91
308.16 K, 9568.1 kPa | 527.899
308.16 K, 9772 kPa | 552.011
308.16 K, 9967.3 kPa | 570.979
308.17 K, 8171.2 kPa | 290.106
308.17 K, 8372.6 kPa | 316.707
308.17 K, 9169 kPa | 464.65
308.17 K, 9368.5 kPa | 499.11
308.18 K, 8570.3 kPa | 347.84
309.13 K, 7972 kPa | 259.723
309.15 K, 8969.7 kPa | 395.876
309.15 K, 9967.3 kPa | 548.766
309.16 K, 9568.6 kPa | 499.83
309.16 K, 9768.9 kPa | 526.36
309.17 K, 8171 kPa | 279.024
309.17 K, 8570.8 kPa | 328.632
309.17 K, 8772.2 kPa | 360.359
309.17 K, 9170.1 kPa | 432.906
